Measured values as given in paper PMC6411159, “Development of a high-throughput fluorescent no-wash sodium influx assay” (PLoS ONE, 2019).
Where two headings read alike, the source gives them in different places.

What was measured:
[1] = octanol-water partition of quencher dyes; format: physicochemical; conditions: 1 mM in 1:1 octanol/water, settled overnight
Description: Supplementary file pone.0213751.s002.pdf: S2 Fig Octanol-water partition of quencher dyes. Quenchers were added to 1:1 octanol/water volume to a 1mM concentration. Tubes were agitated and allowed to settle overnight. […] (PDF) Click here for additional data file.

hNaV1.7 = target: T1, hNaV1.7 (Homo sapiens, UniProt Q15858); format: cell-based
T1 construct: host or cells: HEK293
Description: (§1) HEK293 cells heterologously expressing human NaV1.1–1.8 (SB Drug Discovery, Glasgow, UK) were cultured in Minimum Essential Medium (MEM) (Sigma Aldrich #M5650) containing 10% v/v fetal bovine serum (FBS) and selection antibiotics as recommended by the manufacturer. SH-SY5Y human neuroblastoma cells (Victor Diaz, Goettingen, Germany) were cultured in Roswell Park Memorial Institute (RPMI) medium containing 15% v/v FBS and supplemented with L-glutamine (1 mM). […] Cells were grown in a humidified 5% CO2 incubator at 37°C, grown to 70–80% confluence, and passaged every 3–4 days using TrypLE Express (Invitrogen) or trypsin (0.25%).
(§2) Data were plotted and analyzed using GraphPad Prism, version 6.0. For concentration-response curves, a four-parameter Hill equation with variable Hill coefficient was fitted to the data. Statistical significance was defined as P < 0.05 and was determined by an unpaired t-test assuming equal variance or one-way ANOVA with Dunnett’s post-test as indicated. Data are presented as mean±SEM.

hNaV1.1 = target: T2, hNaV1.1 (Homo sapiens, UniProt P35498); assay: no-wash sodium influx assay (ANG-2 with quencher Ponceau 4R), FLIPR; format: cell-based
T2 construct: host or cells: HEK293
Excerpt: (§3) […]. […] Data are presented as mean±SEM.

hNaV1.2 = hNaV1.2 (Homo sapiens, UniProt Q99250); assay: cell-based
Description: as §1, §2

NaV1.1–1.7 = conditions: read-out: EC50 range over NaV1.1–1.7; ANG-2 + Ponceau 4R 1 mM
Description: as §1, §2

NaV1.8 = system: NaV1.8; design: method as in PMID 14769548; conditions: cited from earlier work
human NaV1.7 = target: T3, human NaV1.7 (Homo sapiens, UniProt Q15858); assay: automated whole-cell patch-clamp electrophysiology (QPatch-16); format: cell-based; conditions: Ponceau 4R 1 mM
T3 construct: host or cells: HEK293
Description: Automated whole-cell patch-clamp recordings were performed on HEK293 cells heterologously expressing human NaV1.7 (SB Drug Discovery, Glasgow, UK) using a QPatch-16 automated electrophysiology platform (Sophion Bioscience, Ballerup, Denmark) as previously described. The extracellular solution consisted of (in mM): NaCl 70, Choline chloride 70, KCl 4, CaCl2 2, MgCl2 1, HEPES 10 and glucose 10; pH 7.4; osmolarity 305 mOsm. The intracellular solution consisted of (in mM): CsF 140, EGTA/CsOH 1/5, HEPES 10 and NaCl 10; pH 7.3 with CsOH; osmolarity 320 mOsm. Ponceau 4R (1 mM) was diluted in extracellular solution and incubated for 5 min before running the voltage protocol and compared to time-matched buffer controls. Patch clamp experiments were conducted at room temperature.
I-V curves were obtained with the membrane potential held at –90 mV and a series of 500 ms step pulses that ranged from –110 to +55 mV in 5-mV increments. Conductance-voltage curves were calculated using the equation G = I/(V–Vrev), where G is conductance, I is peak current and Vrev is the reversal potential. Steady-state fast inactivation was tested using a two-pulse protocol, with 500 ms step pre-pulses (as above) preceding a 10 ms pulse of –20 mV (repetition interval 6000 ms). Both steady-state activation and inactivation curves were fitted using Boltzmann function.

[2] = absorbance spectra (UV-Vis spectrophotometry); format: physicochemical; conditions: diluted in water, NanoDrop ND1000
Description: Quencher dyes Allura Red AC, Amaranth, Carmine, Brilliant Black BN (Sigma Aldrich), and Ponceau 4R (pillar box red food dye) (Queen Australia) were diluted in water to the maximum concentration required to be within detection range (250–1000 μM). Their absorbance spectra were measured with a NanoDrop^TM ND1000 (ThermoFisher Scientific) UV-Vis spectrophotometer and plotted vs UV-Vis spectrum wavelength using GraphPad Prism 6.0.

adenosine receptors = system: adenosine receptors; design: method as in PMID 20086038; conditions: cited from earlier work
hNaV1.8 = target: T4, hNaV1.8 (Homo sapiens, UniProt Q9Y5Y9); assay: no-wash sodium influx assay (ANG-2 with quencher Ponceau 4R), FLIPR; format: cell-based
T4 construct: host or cells: HEK293
Excerpt: as §3

hNaV1.4 = target: T5, hNaV1.4 (Homo sapiens, UniProt P35499); assay: as above; format: cell-based; conditions: hNaV1.4, response to veratridine 60 μM; read-out: IC50 (reduction of fluorescence response)
T5 construct: host or cells: HEK293
Excerpt: as §3

NaV1.1–1.8 = assay: no-wash sodium influx assay, summary over subtypes; format: cell-based, human; conditions: ANG-2 + Ponceau 4R 1 mM; stimulation with veratridine (NaV1.1–1.7) or deltamethrin (NaV1.8); read-out: IC50 range over NaV1.1–1.8
Excerpt: as §3

TRPV4 = target: T6, TRPV4 (Homo sapiens, UniProt Q9HBA0); assay: FLIPR calcium dye assay in MDA-MB-468 breast cancer cells; format: cell-based; conditions: MDA-MB-468 cells, read-out: EC50 (increase in intracellular calcium)
T6 construct: endogenous in cells
Description: FLIPR Calcium 4 no-wash dye (Molecular Devices) and BD Calcium Assay (BD Biosciences) kits were diluted in physiological salt solution as per manufacturers instructions. […] Raw fluorescence readings were converted to response over baseline using the analysis tool of Screenworks 3.1.1.4 (Molecular Devices) and were expressed relative to the maximum increase in fluorescence of control responses following 5 min incubation of compounds.

[3] = 5 min, vs time-matched buffer control

T3 sequence (Q15858 whole entry): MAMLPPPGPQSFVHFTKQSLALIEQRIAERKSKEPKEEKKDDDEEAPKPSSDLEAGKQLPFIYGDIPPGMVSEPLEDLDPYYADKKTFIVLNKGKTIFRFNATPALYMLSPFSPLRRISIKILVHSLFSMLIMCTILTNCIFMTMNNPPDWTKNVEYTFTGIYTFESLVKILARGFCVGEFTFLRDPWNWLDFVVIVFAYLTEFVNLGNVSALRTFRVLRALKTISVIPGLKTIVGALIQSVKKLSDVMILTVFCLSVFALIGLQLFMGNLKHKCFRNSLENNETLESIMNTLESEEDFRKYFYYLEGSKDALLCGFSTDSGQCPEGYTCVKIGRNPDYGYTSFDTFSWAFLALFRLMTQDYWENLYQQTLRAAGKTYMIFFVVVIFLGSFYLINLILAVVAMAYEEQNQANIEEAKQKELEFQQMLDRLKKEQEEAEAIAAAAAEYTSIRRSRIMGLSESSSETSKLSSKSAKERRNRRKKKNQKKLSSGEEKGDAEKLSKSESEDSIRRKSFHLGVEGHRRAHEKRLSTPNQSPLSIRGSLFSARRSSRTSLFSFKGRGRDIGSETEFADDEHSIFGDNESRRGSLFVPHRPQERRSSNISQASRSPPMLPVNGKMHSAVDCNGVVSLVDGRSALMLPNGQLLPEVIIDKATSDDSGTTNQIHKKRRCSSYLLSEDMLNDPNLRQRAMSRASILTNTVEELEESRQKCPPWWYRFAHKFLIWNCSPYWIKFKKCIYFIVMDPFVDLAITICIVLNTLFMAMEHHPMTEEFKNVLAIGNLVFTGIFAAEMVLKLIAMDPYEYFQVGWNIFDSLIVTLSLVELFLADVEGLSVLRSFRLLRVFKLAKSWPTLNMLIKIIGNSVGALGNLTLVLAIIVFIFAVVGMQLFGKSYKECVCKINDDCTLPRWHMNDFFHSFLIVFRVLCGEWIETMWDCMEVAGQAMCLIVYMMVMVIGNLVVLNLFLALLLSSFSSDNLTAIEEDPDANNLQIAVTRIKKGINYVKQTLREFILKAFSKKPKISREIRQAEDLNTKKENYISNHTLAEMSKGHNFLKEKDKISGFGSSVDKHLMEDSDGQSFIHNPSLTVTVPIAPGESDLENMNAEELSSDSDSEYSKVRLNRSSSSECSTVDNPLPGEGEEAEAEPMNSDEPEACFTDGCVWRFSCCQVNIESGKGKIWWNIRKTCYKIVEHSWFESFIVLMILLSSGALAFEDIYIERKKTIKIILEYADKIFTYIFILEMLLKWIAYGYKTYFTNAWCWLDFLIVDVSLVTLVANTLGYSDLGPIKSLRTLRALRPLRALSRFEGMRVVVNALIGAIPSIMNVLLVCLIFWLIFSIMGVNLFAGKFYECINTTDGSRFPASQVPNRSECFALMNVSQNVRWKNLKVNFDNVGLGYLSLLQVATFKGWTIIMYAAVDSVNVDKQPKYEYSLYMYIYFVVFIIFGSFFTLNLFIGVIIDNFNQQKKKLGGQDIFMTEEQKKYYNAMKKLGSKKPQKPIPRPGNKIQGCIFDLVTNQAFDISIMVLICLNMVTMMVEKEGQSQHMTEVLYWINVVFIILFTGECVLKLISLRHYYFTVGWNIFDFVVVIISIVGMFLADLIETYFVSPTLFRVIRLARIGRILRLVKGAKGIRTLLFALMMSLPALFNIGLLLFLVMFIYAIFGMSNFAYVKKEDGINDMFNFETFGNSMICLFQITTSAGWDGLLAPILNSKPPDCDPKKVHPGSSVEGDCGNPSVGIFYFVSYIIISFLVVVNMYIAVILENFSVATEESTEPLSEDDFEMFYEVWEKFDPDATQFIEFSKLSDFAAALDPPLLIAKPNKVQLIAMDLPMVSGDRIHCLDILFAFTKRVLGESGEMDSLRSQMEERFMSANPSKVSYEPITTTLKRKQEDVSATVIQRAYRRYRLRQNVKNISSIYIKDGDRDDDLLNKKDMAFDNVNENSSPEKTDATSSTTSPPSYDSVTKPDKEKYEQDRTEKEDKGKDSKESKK
T6 sequence (Q9HBA0 whole entry): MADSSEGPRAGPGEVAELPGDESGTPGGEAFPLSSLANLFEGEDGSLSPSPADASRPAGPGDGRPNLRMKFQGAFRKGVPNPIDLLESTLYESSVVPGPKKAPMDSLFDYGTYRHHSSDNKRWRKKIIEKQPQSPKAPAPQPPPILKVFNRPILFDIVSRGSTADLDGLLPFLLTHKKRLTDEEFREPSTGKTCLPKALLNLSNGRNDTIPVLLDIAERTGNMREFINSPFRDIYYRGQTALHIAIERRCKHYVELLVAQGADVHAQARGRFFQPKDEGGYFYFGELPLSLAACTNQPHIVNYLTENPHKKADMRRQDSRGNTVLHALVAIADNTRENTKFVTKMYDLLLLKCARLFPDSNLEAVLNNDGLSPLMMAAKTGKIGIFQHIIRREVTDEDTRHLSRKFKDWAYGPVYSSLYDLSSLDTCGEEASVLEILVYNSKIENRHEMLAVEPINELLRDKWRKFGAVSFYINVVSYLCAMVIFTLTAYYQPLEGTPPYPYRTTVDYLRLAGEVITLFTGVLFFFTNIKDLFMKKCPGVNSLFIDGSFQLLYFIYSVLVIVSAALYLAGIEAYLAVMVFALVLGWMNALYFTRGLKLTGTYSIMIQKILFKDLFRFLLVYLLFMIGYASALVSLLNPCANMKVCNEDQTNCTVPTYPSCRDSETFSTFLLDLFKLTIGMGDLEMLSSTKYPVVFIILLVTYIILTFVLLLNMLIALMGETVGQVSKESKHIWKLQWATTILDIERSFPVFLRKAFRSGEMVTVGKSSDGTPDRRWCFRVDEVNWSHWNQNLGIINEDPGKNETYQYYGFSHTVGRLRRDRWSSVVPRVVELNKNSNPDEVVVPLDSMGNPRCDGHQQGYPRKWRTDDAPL
T4 sequence (Q9Y5Y9 whole entry): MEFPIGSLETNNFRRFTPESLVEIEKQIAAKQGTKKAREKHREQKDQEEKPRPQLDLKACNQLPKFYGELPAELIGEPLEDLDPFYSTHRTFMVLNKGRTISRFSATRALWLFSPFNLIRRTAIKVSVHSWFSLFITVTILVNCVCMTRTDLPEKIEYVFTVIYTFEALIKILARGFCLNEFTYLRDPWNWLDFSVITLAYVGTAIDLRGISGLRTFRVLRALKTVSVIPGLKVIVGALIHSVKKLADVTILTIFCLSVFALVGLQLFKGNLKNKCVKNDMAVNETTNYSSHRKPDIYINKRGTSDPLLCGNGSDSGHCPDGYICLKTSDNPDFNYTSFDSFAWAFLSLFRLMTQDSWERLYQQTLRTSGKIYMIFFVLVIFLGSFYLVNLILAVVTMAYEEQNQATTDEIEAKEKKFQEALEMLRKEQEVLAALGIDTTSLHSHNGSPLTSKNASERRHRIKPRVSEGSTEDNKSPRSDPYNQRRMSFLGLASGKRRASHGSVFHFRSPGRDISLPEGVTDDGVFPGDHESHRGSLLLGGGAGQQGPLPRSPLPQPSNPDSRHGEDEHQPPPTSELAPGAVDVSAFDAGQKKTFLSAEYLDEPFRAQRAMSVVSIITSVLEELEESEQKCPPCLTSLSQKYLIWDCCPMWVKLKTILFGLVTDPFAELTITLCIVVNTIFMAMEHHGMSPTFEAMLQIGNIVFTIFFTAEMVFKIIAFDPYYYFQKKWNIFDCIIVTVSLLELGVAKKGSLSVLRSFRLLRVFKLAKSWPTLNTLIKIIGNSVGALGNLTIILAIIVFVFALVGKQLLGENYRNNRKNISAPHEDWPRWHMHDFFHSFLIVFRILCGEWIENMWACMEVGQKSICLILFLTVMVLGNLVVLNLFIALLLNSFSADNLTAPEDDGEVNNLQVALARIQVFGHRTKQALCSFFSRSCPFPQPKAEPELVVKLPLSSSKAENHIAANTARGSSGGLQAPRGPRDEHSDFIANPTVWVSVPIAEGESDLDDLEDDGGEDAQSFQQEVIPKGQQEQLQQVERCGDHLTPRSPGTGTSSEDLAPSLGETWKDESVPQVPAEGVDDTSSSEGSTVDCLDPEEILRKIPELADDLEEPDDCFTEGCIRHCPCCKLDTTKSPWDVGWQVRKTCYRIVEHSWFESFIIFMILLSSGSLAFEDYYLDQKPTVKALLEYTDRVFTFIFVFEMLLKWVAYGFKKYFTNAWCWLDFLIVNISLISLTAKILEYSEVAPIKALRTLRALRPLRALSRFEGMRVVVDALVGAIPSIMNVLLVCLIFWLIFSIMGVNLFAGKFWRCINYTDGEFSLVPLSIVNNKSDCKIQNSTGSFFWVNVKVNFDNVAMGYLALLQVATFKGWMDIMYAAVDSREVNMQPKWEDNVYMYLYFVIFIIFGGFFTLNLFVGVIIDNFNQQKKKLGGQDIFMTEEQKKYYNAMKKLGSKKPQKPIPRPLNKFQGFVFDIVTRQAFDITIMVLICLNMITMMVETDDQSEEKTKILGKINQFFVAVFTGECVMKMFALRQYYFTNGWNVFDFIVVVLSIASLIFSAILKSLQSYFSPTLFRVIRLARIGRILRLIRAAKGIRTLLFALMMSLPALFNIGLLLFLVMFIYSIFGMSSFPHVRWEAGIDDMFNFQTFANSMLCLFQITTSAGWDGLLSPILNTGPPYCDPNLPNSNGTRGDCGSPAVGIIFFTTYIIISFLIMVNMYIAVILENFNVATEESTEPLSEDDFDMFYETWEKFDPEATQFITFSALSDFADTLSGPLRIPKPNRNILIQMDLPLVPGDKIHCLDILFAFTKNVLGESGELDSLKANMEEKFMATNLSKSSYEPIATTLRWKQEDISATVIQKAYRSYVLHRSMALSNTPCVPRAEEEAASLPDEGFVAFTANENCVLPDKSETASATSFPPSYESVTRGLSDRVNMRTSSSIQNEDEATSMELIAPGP
T1 sequence (Q15858 whole entry): as the sequence (Q15858 whole entry) above

## Cc1c(C(=O)O)c(O)cc2c1C(=O)c1c(O)c(C3O[C@H](CO)[C@@H](O)[C@H](O)[C@H]3O)c(O)c(O)c1C2=O (stereo in doubt) [Carmine]
[1]
  octanol-water partition: partitioned into the octanol phase
hNaV1.7
  veratridine-induced fluorescence signal in presence of quencher: comparatively low signal

## COc1cc(S(=O)(=O)[O-])c(C)cc1N=Nc1c(O)ccc2cc(S(=O)(=O)[O-])ccc12.[Na+].[Na+] [Allura Red, Allura Red AC]
[1]
  octanol-water partition: partitioned into the octanol phase

## COc1ccc(C(=O)O[C@H]2CC[C@@]3(C)[C@@H]4CC[C@H]5[C@]6(O)C[C@H](O)[C@@]7(O)[C@@H](CN8C[C@@H](C)CC[C@H]8[C@@]7(C)O)[C@]6(O)C[C@@]53O[C@]24O)cc1OC [veratridine]
hNaV1.1; EC50 (increase in fluorescence), hNaV1.1, ANG-2 + Ponceau 4R
  EC50: 21 µM
hNaV1.1; Veratridine pEC50, HEK293 hNaV1.1, ANG-2 + Ponceau 4R 1 mM, AUC 5 min
  EC50: 21.9 µM
hNaV1.2; EC50 (increase in fluorescence), hNaV1.2, ANG-2 + Ponceau 4R
  EC50: 16 µM
hNaV1.2; Veratridine pEC50, HEK293 hNaV1.2, ANG-2 + Ponceau 4R 1 mM, AUC 5 min
  EC50: 16.6 µM
NaV1.1–1.7
  EC50: 10 to 29 µM
NaV1.8
  effect on NaV1.8 in fluorescence-based assays: little effect

## O=S(=O)([O-])c1cc(S(=O)(=O)[O-])c2c(N=Nc3ccc(S(=O)(=O)[O-])c4ccccc34)c(O)ccc2c1.[Na+].[Na+].[Na+] [Ponceau 4R]
Human NaV1.7
  effect on activation or inactivation kinetics of NaV1.7: no effect
  shift in the I-V curve or effect on current size: did not cause a shift in the I-V curve or affect the current size
Human NaV1.7; [3]
  shift in voltage-dependence of activation (V1/2 activation Δ): –0.96 mV
  shift in voltage-dependence of steady-state fast inactivation (V1/2 inactivation Δ): –1.46 mV

## CC(=O)Nc1ccc(S(=O)(=O)[O-])c2cc(S(=O)(=O)[O-])c(N=Nc3ccc(N=Nc4ccc(S(=O)(=O)[O-])cc4)c4ccc(S(=O)(=O)[O-])cc34)c(O)c12.[Na+].[Na+].[Na+].[Na+] [Brilliant Black BN]
[2]
  peak absorption (λ max): 575 nm
Adenosine receptors
  action on adenosine receptors: allosteric modulator

## CCCCNc1ccc(C(=O)OCCN(C)C)cc1 [tetracaine]
hNaV1.8; Tetracaine pIC50, hNaV1.8, 5 min pre-incubation, then deltamethrin 150 μM
  IC50: 6.61 µM
hNaV1.8; hNaV1.8, response to deltamethrin 150 μM, read-out: IC50 (reduction of fluorescence response)
  IC50: 6 µM
hNaV1.4
  IC50: 13 µM
hNaV1.1; hNaV1.1, response to veratridine 60 μM, read-out: IC50 (reduction of fluorescence response)
  IC50: 52 µM
NaV1.1–1.8
  IC50: 6 to 66 µM

## CC(C)C[C@H](NC(=O)c1cc2ccccc2s1)C(=O)N1CCN(C(=O)[C@H](CO)NS(=O)(=O)c2ccc(Cl)cc2Cl)CC1 [GSK1016790A]
TRPV4; BD Calcium Assay Kit
  EC50: 0.04 µM
TRPV4; FLIPR Calcium 4 no-wash dye
  EC50: 0.08 µM
TRPV4; fluo-4 with Allura Red 1 mM
  EC50: 0.064 µM
TRPV4; fluo-4 with Amaranth 1 mM
  EC50: 0.07 µM
TRPV4; fluo-4 with Brilliant Black BN 1 mM
  EC50: 0.072 µM
TRPV4; fluo-4 with Ponceau 4R 1 mM
  EC50: 0.074 µM
TRPV4; fluo-4 with wash
  EC50: 0.047 µM
